Data from patent US20210403415A1, “COMPOUNDS AND METHODS TO ATTENUATE TUMOR PROGRESSION AND METASTASIS” (THE TRUSTEES OF INDIANA UNIVERSITY, priority 2018, published 2021).

Assays:
[1] = target: T1, TEAD4 Cys367Ser mutant (Homo sapiens, UniProt Q15561, C367S); assay: Fluorescence polarization, GST-TEAD4 Cys367Ser mutant with FAM-Yap60-99 peptide; format: binding; settings: 24 h at 4° C.
T1 construct: TEAD4 (217-434) Cys367Ser mutant and Yap1 (Full-length) were expressed as GST-fusion proteins; made in house; host or cells: E. coli BL-21 (DE3), pGEX-6P-1
Protocol: GST-TEAD4, GST-TEAD4 Cys367Ser mutant or HIS-TEAD2 interaction with Yap1 was investigated using a fluorescently-labeled peptide (FAM-Yap60-99), consisting of FAM-labeled TEAD-binding peptide fragment of Yap1 (FAM-[…] TVPMCLRKLPASFCKPP), which has a disulfide bridge (American Peptide, Sunnyvale, Calif.). Addition of FAM-Yap60-99 to the TEAD was followed by measurement of changes in polarization. 40 μL of 125 nM GST-TEAD4 WT or GST-TEAD4 Cys367Ser in assay buffer (PBS with 0.01% v/v Triton-X100) or 40 μL of 64 nM HIS-TEAD2 was added to a 384-well black polystyrene plate (Cat. No. 262260; Nunc, Roskilde, Denmark) and incubated with 5 μL of […] serially diluted compounds in assay buffer supplemented with 20% v/v DMSO for 24 h at 4° C. Finally, 5 μL of 160 nM FAM-Yap60-99 peptide was added, the plate centrifuged, and the polarization was measured on an Envision Multilabel Plate Reader (PerkinElmer, Waltham, Mass.) using a filter set with excitation and emission wavelengths of 485 and 535 nm, respectively. Percent inhibition was calculated as relative to a minimum inhibition control, which is without compound, and a maximum inhibition control, which is without a TEAD.

[2] = target: T1, TEAD4 Cys367Ser mutant; assay: Whole protein ESI mass spectrometry, adduct formation with mutant; format: binding; settings: 10 μM mutant, 200 μM compound, 24 h at 4° C.
Protocol: (§1) The samples were centrifuged at 20,000×g for […] to remove precipitants before being injected into an empty column on an Agilent 1200 liquid chromatography system (Agilent, Santa Clara, Calif.), using 80% Buffer A (H2O, 5 mM NH4OAc) and 20% Buffer B (ACN, 5 mM NH4OAc), and the masses were detected on an Agilent 6520 Accurate Mass Q-TOF.
FIG. 4A illustrates analysis by ESI mass spectrometry after 10 μM TEAD4 Cys367Ser mutant was incubated with 200 μM compound for 24 h at 4° C. FIG. 4B illustrates measurement of fluorescence polarization due to binding when increasing concentration of TEAD4 Cys367Ser mutant was mixed with 16 nM FAM-Yap60-99 peptide (mean±s.d.; n=3). FIG. 4C illustrates measurement of fluorescence polarization due to binding when TEAD4 Cys367Ser mutant was incubated with increasing concentration of compounds for 24 h at 4° C. followed by addition of FAM-Yap60-99 (mean±s.d.; n=3).

[3] = test system: patient-derived GBM43 glioblastoma spheroids; assay: GBM43 spheroid viability (Alamar blue); format: cell-based, human; settings: for cytotoxicity at 10 µM: Homo sapiens, GBM43 cell, read-out: inhibition of GBM43 cell viability; for effect on GBM43 cancer cell viability / growth: three-dimensional spheroids
Protocol: Early-passage GBM43 cells were cultured in ultralow adherence plates (Corning Inc.) at 1 to 2×10^3 cells/mL in DMEM supplemented with 1% […] (Invitrogen), 2% B27 (Invitrogen), 25 ng/mL epidermal growth factor (EGF, 25 ng/mL fibroblast growth factor (FGF) (R&D Systems, Inc.), […], 2 ng/mL platelet growth factor, and 100 ng/mL each of penicillin and streptomycin (Invitrogen Inc.). Individual cells were recovered from spheres by incubation with Accutase (Sigma-Aldrich) for 10-15 minutes. Cells (50-100/well) were then seeded in fresh sphere-forming media in 96-well plates. After 2-3 days, Neurospheres containing 6 to 8 cells were treated with compounds 1, 2, and 5.
HEK-293 were cultured in DMEM with glutamine (Cellgro, Manassas, Va.) supplemented with 10% FBS and 1% penicillin/streptomycin in a 5% CO2 atmosphere at 37° C. Tumors were expanded by passage in the flank of NOD/SCIDγnull mice. To generate GBM43 cell lines, tumors were harvested, disaggregated, and maintained in 2.5% FBS for 14 days on Matrigel-coated plates (BD Biosciences) to remove murine fibroblasts. In-vitro GBM43 cell lines were propagated in DMEM with 10% FBS for no more than 7 passages. Cell line identity was confirmed by DNA fingerprint analysis (IDEXX BioResearch) for species and baseline short-tandem repeat analysis testing. GBM43 spheroids were generated by plating early-passage cells at 2.5×10^4 cells per well in 96-well ultralow attachment plates (Corning Inc.) in DMEM/F12 (1:1; GIBCO) supplemented with 2% B27 supplement (GIBCO), 20 ng/mL epidermal growth factor (EGF), and 20 ng/mL fibroblast growth factor (FGF) (Peprotech) for 2 days. The spheroids were then treated with compounds 1, 2, and 5 and growth analyzed by Alamar blue staining.

[4] = test system: CTGF transcript levels; assay: qRT-PCR of CTGF transcript in GBM43 cells; format: cell-based, human; settings: FIG. 8C
[5] = target: TEAD4 (Homo sapiens, UniProt Q15561); assay: Whole protein ESI mass spectrometry, adduct formation; format: binding; set-up: TEAD4 (217-434), TEAD4 (217-434) Cys367Ser mutant and Yap1 (Full-length) were expressed as GST-fusion proteins; GST (N, cleaved yes); made in house; host or cells: E. coli BL-21 (DE3), pGEX-6P-1; settings: for covalent adduct formation with TEAD4: 10 μM TEAD4, 200 μM compound, 24 h at 4° C.
Protocol: as §1
It was determined whether a covalent bond formed between inventive compounds and TEAD4. […] The covalent adduct formation by compound 2 was relatively fast (FIG. 3G), reaching nearly 100% adduct formation after 30 min incubation with TEAD4. Because the rate of inhibition developed over a longer timescale (FIG. 3C), compound 2 is proposed to induce a slow conformational change in TEAD4 that prevents its interaction with Yap1. To rule out the possibility that compound 2 induces slow aggregation of TEAD4, and not the proposed slow conformational change, GST-TEAD4 was incubated with DMSO compound 2 for 24 h at 4° C., followed by injection into an SEC column (FIG. 3H). […] A slight increase in dimer formation for the TEAD4 sample incubated with compound 2 occurred compared to the sample incubated with DMSO. […] Furthermore, it is highly unlikely that Cys-367 oxidation was responsible for the lack of 100% inhibition at longer times since it has been shown that covalent bond formation is rapid and complete within less than an hour.

TEAD4, sequence (Q15561 217-434): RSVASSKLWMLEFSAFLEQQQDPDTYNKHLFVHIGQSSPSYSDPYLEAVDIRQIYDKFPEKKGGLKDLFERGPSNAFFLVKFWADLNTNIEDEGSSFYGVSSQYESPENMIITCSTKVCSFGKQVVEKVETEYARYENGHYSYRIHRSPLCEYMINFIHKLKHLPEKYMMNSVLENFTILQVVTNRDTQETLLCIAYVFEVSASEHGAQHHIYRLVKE
T1 sequence (Q15561 217-434 C367S): as the sequence (Q15561 217-434) above, with C151S counted along it

Row | SMILES | inhibition of TEAD4 Cys367Ser mutant binding to the peptide [1] | adduct formation with TEAD4 Cys367Ser mutant [2] | cytotoxicity at 10 µM [3] [%] | effect on GBM43 cancer cell viability / growth [3] | CTGF transcript levels versus vehicle [4] | covalent adduct formation with TEAD4 [5] | adduct formation with TEAD4 ([5]; after 30 min incubation) [%]
1 | O=C(CCl)c1ccccc1Nc1cccc(C(F)(F)F)c1 [Compound 2, 2-chloro-1-(2-((3-(trifluoromethyl)phenyl)amino)phenyl)ethanone] | did not inhibit | failed to form an adduct | 30 | inhibited GBM43 cancer cell viability | suppressed CTGF transcript levels | a peak at 26229 was observed, corresponding to the TEAD4.compound 2 adduct | ~100
2 | O=C(CCl)c1ncccc1Nc1cccc(C(F)(F)F)c1 [Compound 5, 2-chloro-1-(3-((3-(trifluoromethyl)phenyl)amino)pyridin-2-yl)ethanone] | also inhibited the TEAD4 Cys367Ser mutant | formed an adduct | 30 | inhibited GBM43 cancer cell viability | suppressed CTGF transcript levels | formed more than one covalent complex | –
